Test results from patent US5242902A, “Defensin peptide compositions and methods for their use” (The Regents of the University of California, priority 1989, dated 1993).

How the values were obtained:
[1] = system: capsaicin-treated corneas; format: in vivo
Experimental: Capsaicin-treated corneas from adult rabbits were used to determine the effects of topically applied defensins on corneal re-epithelialization. Capsaicin depletes neuropeptides which have an effect on wound healing (data not shown). The rabbits received 0.4 ml of lidocaine diluted in 2.6 ml of sterile saline delivered subcutaneously between the cranial aspect of the interscapular space. After 10 minutes, 50 mg/kg of capsaicin (100 mg/ml) was delivered through a 11/2 inch 25 gauge needle. Repeat injections of capsaicin was given once a day for four additional days. Three weeks from the last injection bilateral corneal defects were created as described below and the eyes treated topically with test solutions. The cornea was treated with two drops of test solution after creation of the epithelial defect. Upon completion of surgery, the rabbit was returned to its cage onto a warm heating pad. Sequential corneal photographs were taken after installation of fluoroscein and the rate of epithelial wound healing determined.
The effects of topically applied HNP-1 on the epithelial wound healing of neuropeptide depleted rabbit corneas was investigated. Corneas of rabbits treated systemically with capsaicin have impaired epithelial healing. In this model, capsaicin (50 mg/kg) was injected subcutaneously for 5 consecutive days into New Zealand white rabbits. Lidocaine was delivered subcutaneously into the capsaicin injection site 10 minutes prior to the first injection. Three weeks after the injections, the animals were anesthetized (ketamine/xylazine), topical anesthetic applied to the cornea, and the epithelium debrided circumferentially to the limbal margin of clear cornea. Absolute alcohol on microcellulose sponges and a dull #15 Bard Parker blade were used to remove the epithelium. Care was taken that no alcohol ran over the clear corneal edge to damage the limbal epithelium. The corneas were stained with fluorescein and photographed twice daily to monitor re-epithelialization. […]

[2] = system: panel of organisms in stationary growth phase; conditions: cited from earlier work
[3] = system: Nakano mouse lens epithelial cells; test: In vitro cell growth assay (3H-thymidine incorporation, cell counts), serum free; format: cell-based
Experimental: (§1) Cell growth assays were performed as previously described in Reid et al., (1987), J. Biol. Chem. 262:229-233. Briefly, cells were grown to confluence in 96-well plates in media plus serum and arrested in G0/G1 by either serum starvation for 2-days (epithelial cells) or 8-10 day serum depletion followed by serum starvation for 1-day (fibroblasts). At this point the media was removed and new media with the desired factors was added. Approximately 16 hours later ^3 -thymidine was added and 20 to 28 hours later the cells were washed, lysed and the amount of ^3 H-thymidine incorporated into DNA was measured. In some cases, actual cell counts were performed.
(§2) The growth stimulatory properties of human defensins HNP-1, HNP-2, HNP-3 and rabbit defensins NP-1 and NP-5 in a serum free growth assay system were tested. SIRC rabbit corneal epithelial cells, Nakano mouse lens epithelial cells, and NIH 3T3 fibroblasts were utilized in these studies.

[4] = system: NIH 3T3 fibroblasts; test: In vitro cell growth assay (3H-thymidine incorporation), serum free; format: cell-based
Experimental: as §1, §2

[5] = system: SIRC rabbit corneal epithelial cells; test: as above; format: cell-based
Experimental: as §1, §2

Substance	time to re-epithelialization of treated eye ([1]; 100 μg/ml topical 4 times a day, control eye healed at 6.5 days) [days]	re-epithelialization of treated versus fellow control eye ([1]; 100 μg/ml topical, one rabbit)	effect on the cornea or conjunctiva (tolerability) ([1]; topical, 4 times a day, 40 or 100 μg/ml in sterile water, four rabbits)	relative antimicrobial potency among defensins [2]	growth promoting response with bovine serum albumin ([3]; 5 mg/ml BSA added at varying times after stimulation (FIGS. 7 and 8), preliminary)	suppression at higher concentrations ([4]; 3T3 fibroblast cells, higher concentrations)	stimulatory properties (DNA synthesis) ([4]; 3T3 fibroblasts, presence and absence of insulin (FIG. 10))	stimulatory properties (DNA synthesis) ([5]; corneal epithelial cells (FIG. 9))	effect at higher concentrations ([5]; corneal epithelial cells, higher concentrations)	actual cell number ([3]; cell counts (FIG. 6))	stimulatory effect on cell number compared with insulin and EGF ([3]; insulin and EGF at concentrations which elicit maximal response (FIG. 6))
HNP-1: human neutrophil defensin peptide isolated from PMN; sequence in Table 1	5.5	both corneas re-epithelialized simultaneously	no deleterious effect on the cornea or conjunctiva	most potent antimicrobial properties	response curve is shifted to the right and that the plateau phase is extended	not observed	stimulatory	stimulatory	suppression observed at higher concentrations		
HNP-3: human neutrophil defensin peptide; sequence in Table 1										increase in actual cell number	surpassed that of insulin and EGF
